Calls of active or inactive are those of the source. How the calls were made is not given here.
Tested on: CCRIS mutagenicity, Ames/micronucleus/aberration tests
Assay: CCRIS mutagenicity studies
Conditions: Test System: AMES SALMONELLA TYPHIMURIUM

**Q.** Which mutagenic call (Strain/Indicator: TA97, Metabolic Activation: HAMSTER, LIVER, S-9, AROCLOR 1254 (10%), Method: PREINCUBATION) does the source give for `CC(O)CCl` (configuration not stated) here?
**A.** inactive; negative

**Q.** What about the mutagenic call (Strain/Indicator: TA97, Metabolic Activation: NONE, Method: PREINCUBATION) of the same compound?
**A.** inactive; negative

**Q.** What about the mutagenic call (Strain/Indicator: TA97, Metabolic Activation: RAT, LIVER, S-9, AROCLOR 1254 (10%), Method: PREINCUBATION) of the same compound?
**A.** inactive; negative

**Q.** And the mutagenic call (Strain/Indicator: TA98, Metabolic Activation: HAMSTER LIVER S-9, AROCLOR 1254 (10%), Method: PREINCUBATION)?
**A.** inactive; negative

**Q.** What about the mutagenic call (Strain/Indicator: TA98, Metabolic Activation: HAMSTER, LIVER, S-9, AROCLOR 1254 (10%), Method: PREINCUBATION) of the same compound?
**A.** inactive; negative

**Q.** And the mutagenic call (Strain/Indicator: TA98, Metabolic Activation: NONE, Method: FLUCTUATION (MICROTITER))?
**A.** inactive; negative

**Q.** What about the mutagenic call (Strain/Indicator: TA98, Metabolic Activation: NONE, Method: PREINCUBATION) of the same compound?
**A.** inactive; negative

**Q.** And the mutagenic call (Strain/Indicator: TA98, Metabolic Activation: RAT LIVER S-9, AROCLOR 1254 (10%), Method: PREINCUBATION)?
**A.** inactive; negative

**Q.** What about the mutagenic call (Strain/Indicator: TA98, Metabolic Activation: RAT LIVER S-9, AROCLOR 1254, Method: FLUCTUATION (MICROTITER)) of the same compound?
**A.** inactive; negative

**Q.** What about the mutagenic call (Strain/Indicator: TA98, Metabolic Activation: RAT, LIVER, S-9, AROCLOR 1254 (10%), Method: PREINCUBATION) of the same compound?
**A.** inactive; negative

**Q.** And the mutagenic call (Strain/Indicator: TA100, Metabolic Activation: HAMSTER, LIVER, S-9, AROCLOR 1254 (10%), Method: PREINCUBATION)?
**A.** inactive; negative

**Q.** And the mutagenic call (Strain/Indicator: TA100, Metabolic Activation: NONE, Method: PREINCUBATION)?
**A.** inactive; negative

**Q.** What about the mutagenic call (Strain/Indicator: TA100, Metabolic Activation: RAT, LIVER, S-9, AROCLOR 1254 (10%), Method: PREINCUBATION) of the same compound?
**A.** inactive; negative

**Q.** And the mutagenic call (Strain/Indicator: TA1535, Metabolic Activation: HAMSTER LIVER S-9, AROCLOR 1254 (10%), Method: PREINCUBATION)?
**A.** active; positive

**Q.** And the mutagenic call (Strain/Indicator: TA1535, Metabolic Activation: HAMSTER, LIVER, S-9, AROCLOR 1254 (10%), Method: PREINCUBATION)?
**A.** active; positive

**Q.** What about the mutagenic call (Strain/Indicator: TA1535, Metabolic Activation: NONE, Method: PREINCUBATION) of the same compound?
**A.** active; positive

**Q.** What about the mutagenic call (Strain/Indicator: TA1535, Metabolic Activation: RAT LIVER S-9, AROCLOR 1254 (10%), Method: PREINCUBATION) of the same compound?
**A.** active; positive

**Q.** And the mutagenic call (Strain/Indicator: TA1535, Metabolic Activation: RAT, LIVER, S-9, AROCLOR 1254 (10%), Method: PREINCUBATION)?
**A.** active; positive

**Q.** And the mutagenic call (Strain/Indicator: TA1537, Metabolic Activation: HAMSTER LIVER S-9, AROCLOR 1254 (10%), Method: PREINCUBATION)?
**A.** inactive; negative

**Q.** What about the mutagenic call (Strain/Indicator: TA1537, Metabolic Activation: HAMSTER, LIVER, S-9, AROCLOR 1254 (10%), Method: PREINCUBATION) of the same compound?
**A.** inactive; negative

**Q.** And the mutagenic call (Strain/Indicator: TA1537, Metabolic Activation: NONE, Method: FLUCTUATION (MICROTITER))?
**A.** inactive; negative

**Q.** And the mutagenic call (Strain/Indicator: TA1537, Metabolic Activation: NONE, Method: PREINCUBATION)?
**A.** inactive; negative

**Q.** What about the mutagenic call (Strain/Indicator: TA1537, Metabolic Activation: RAT LIVER S-9, AROCLOR 1254 (10%), Method: PREINCUBATION) of the same compound?
**A.** inactive; negative

**Q.** What about the mutagenic call (Strain/Indicator: TA1537, Metabolic Activation: RAT LIVER S-9, AROCLOR 1254, Method: FLUCTUATION (MICROTITER)) of the same compound?
**A.** inactive; negative

**Q.** What about the mutagenic call (Strain/Indicator: TA1537, Metabolic Activation: RAT, LIVER, S-9, AROCLOR 1254 (10%), Method: PREINCUBATION) of the same compound?
**A.** inactive; negative

**Q.** What about the mutagenic call (Strain/Indicator: TA7001, Metabolic Activation: NONE, Method: FLUCTUATION (MICROTITER)) of the same compound?
**A.** inactive; negative

**Q.** What about the mutagenic call (Strain/Indicator: TA7001, Metabolic Activation: RAT LIVER S-9, AROCLOR 1254, Method: FLUCTUATION (MICROTITER)) of the same compound?
**A.** inactive; negative

**Q.** And the mutagenic call (Strain/Indicator: TA7002, Metabolic Activation: NONE, Method: FLUCTUATION (MICROTITER))?
**A.** inactive; negative

**Q.** And the mutagenic call (Strain/Indicator: TA7002, Metabolic Activation: RAT LIVER S-9, AROCLOR 1254, Method: FLUCTUATION (MICROTITER))?
**A.** inactive; negative

**Q.** And the mutagenic call (Strain/Indicator: TA7003, Metabolic Activation: NONE, Method: FLUCTUATION (MICROTITER))?
**A.** inactive; negative

**Q.** What about the mutagenic call (Strain/Indicator: TA7003, Metabolic Activation: RAT LIVER S-9, AROCLOR 1254, Method: FLUCTUATION (MICROTITER)) of the same compound?
**A.** inactive; negative

**Q.** What about the mutagenic call (Strain/Indicator: TA7004, Metabolic Activation: NONE, Method: FLUCTUATION (MICROTITER)) of the same compound?
**A.** inactive; negative

**Q.** What about the mutagenic call (Strain/Indicator: TA7004, Metabolic Activation: RAT LIVER S-9, AROCLOR 1254, Method: FLUCTUATION (MICROTITER)) of the same compound?
**A.** inactive; negative

**Q.** What about the mutagenic call (Strain/Indicator: TA7005, Metabolic Activation: NONE, Method: FLUCTUATION (MICROTITER)) of the same compound?
**A.** inactive; negative

**Q.** What about the mutagenic call (Strain/Indicator: TA7005, Metabolic Activation: RAT LIVER S-9, AROCLOR 1254, Method: FLUCTUATION (MICROTITER)) of the same compound?
**A.** inactive; negative

**Q.** What about the mutagenic call (Strain/Indicator: TA7006, Metabolic Activation: NONE, Method: FLUCTUATION (MICROTITER)) of the same compound?
**A.** inactive; negative

**Q.** What about the mutagenic call (Strain/Indicator: TA7006, Metabolic Activation: RAT LIVER S-9, AROCLOR 1254, Method: FLUCTUATION (MICROTITER)) of the same compound?
**A.** inactive; negative
